Data on ten molecules can be found in ChEMBL document CHEMBL4715849, “Recent Progress in the Discovery of Antifungal Agents Targeting the Cell Wall” (J Med Chem, 2020).

Data set [1] in a line: Inhibition of Candida albicans glucosamine-6-phosphate synthase by Elson-Morgan method.
For data set [2], the system named is Candida albicans. Briefly: Antifungal activity against Candida albicans ATCC 10261 incubated for 24 hrs by serial dilution method. It counts as functional.
Data set [3] concerns Candida albicans. In words: Antifungal activity against Candida albicans ATCC 26278 incubated for 24 hrs by serial dilution method. It counts as functional.
In data set [4] the test system is Candida albicans. In words: Antifungal activity against Candida albicans FP614 by agar dilution method. It counts as functional. For orientation: In agar dilution the substance is mixed into plates at graded concentrations.
Data set [5] relates to Candida albicans. In words: Antifungal activity against Candida albicans FP615 by agar dilution method. Format: functional.
In data set [6] the test system is Candida albicans. In words: Antifungal activity against Candida albicans FP616 by agar dilution method. It counts as functional.
Data set [7] relates to Candida albicans. In words: Antifungal activity against Candida albicans FP622 by agar dilution method. Format: functional.
Data set [8] deals with Candida tropicalis. In words: Antifungal activity against Candida tropicalis FP583 by agar dilution method. It counts as functional.
Data set [9] has as its system Pichia kudriavzevii. Briefly: Antifungal activity against Candida krusei FP585 by agar dilution method. It counts as functional.
Data set [10] has as its system Candida parapsilosis. In words: Antifungal activity against Candida parakrusei FP586 by agar dilution method. It counts as functional. The following applies: Lodderomyces parapsilosis.
A short description of data set [11]: Inhibition of Saccharomyces cerevisiae CTS1 incubated for 70 mins by fluorescence method.
The target of data set [12] is Endochitinase A1 (Aspergillus fumigatus, UniProt Q873Y0). Briefly: Inhibition of Aspergillus fumigatus chiA1 (Arg28 to His337) expressed in Pichia pastoris incubated for 70 mins using 4MU-NAc3 as substrate by fluorescence method.
Endochitinase A1, sequence (Q873Y0 whole entry): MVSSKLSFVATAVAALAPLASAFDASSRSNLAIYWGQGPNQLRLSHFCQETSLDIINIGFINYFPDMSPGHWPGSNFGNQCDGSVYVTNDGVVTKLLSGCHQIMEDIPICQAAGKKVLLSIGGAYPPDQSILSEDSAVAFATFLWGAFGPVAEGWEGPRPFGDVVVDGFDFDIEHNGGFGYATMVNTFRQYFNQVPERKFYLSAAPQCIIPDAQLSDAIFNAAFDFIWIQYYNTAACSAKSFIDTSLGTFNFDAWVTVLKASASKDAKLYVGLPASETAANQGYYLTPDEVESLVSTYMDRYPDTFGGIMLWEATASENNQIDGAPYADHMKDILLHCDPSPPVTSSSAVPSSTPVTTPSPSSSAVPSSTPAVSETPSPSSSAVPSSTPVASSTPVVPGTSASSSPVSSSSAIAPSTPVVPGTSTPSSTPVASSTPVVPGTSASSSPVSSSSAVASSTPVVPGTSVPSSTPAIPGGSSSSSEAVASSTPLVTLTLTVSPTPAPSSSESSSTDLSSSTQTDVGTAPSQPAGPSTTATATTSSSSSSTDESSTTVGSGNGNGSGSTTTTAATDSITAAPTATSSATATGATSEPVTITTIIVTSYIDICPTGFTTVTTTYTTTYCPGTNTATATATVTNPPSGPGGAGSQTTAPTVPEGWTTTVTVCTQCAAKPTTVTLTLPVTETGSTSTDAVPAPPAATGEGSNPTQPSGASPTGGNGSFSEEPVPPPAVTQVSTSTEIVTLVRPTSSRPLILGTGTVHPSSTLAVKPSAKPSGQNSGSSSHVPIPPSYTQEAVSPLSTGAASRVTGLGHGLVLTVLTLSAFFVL
Data set [13] can be described thus: Inhibition of Candida albicans GFA1 using D-Fru6P and L-glutamine as substrate by absorbance method.
The test system of data set [14] is Candida albicans. Briefly: Antifungal activity against Candida albicans ATCC 10231 by CLSI-based serial dilution method. It counts as functional.
Data set [15] can be described thus: Half life in Beagle dog at 1.4 mg/kg, iv measured up to 72 hrs by LC-MS/MS analysis. It counts as ADME, organism-based, Canis lupus familiaris. The following applies: in vivo.
The nature of data set [16]: Half life in human at 50 mg by liquid chromatography-tandem mass spectrometry method. Format: ADME. The note with it: in vivo.
Data set [17] is described as follows: Inhibition of Candida albicans GFA1 using D-Fru6P and L-glutamine as substrate incubated for 30 mins by Elson-Morgan method.
Data set [18] has as its system Candida albicans. In words: Antifungal activity against Candida albicans infected in mouse assessed as protection against fungus-induced lethal infection. It counts as functional. The following applies: read-out: PD50.
The test system of data set [19] is Nakaseomyces glabratus. In words: Antifungal activity against Candida glabrata DSM 11226 by CLSI-based serial dilution method. Format: functional.
Data set [20] is described as follows: Antifungal activity against Candida arborea KKP319 by CLSI-based serial dilution method. It counts as functional.
Data set [21] relates to Pichia kudriavzevii. Briefly: Antifungal activity against Candida krusei DSM 6128 by CLSI-based serial dilution method. It counts as functional.
Data set [22] relates to Candida albicans. In words: Antifungal activity against Candida albicans Ca2323/ORF6.945 by CLSI method. It counts as functional.
The test system of data set [23] is Candida albicans. Briefly: Antifungal activity against Candida albicans Ca1055 by CLSI method. Format: functional.
Data set [24] deals with Candida parapsilosis. In words: Antifungal activity against Candida parapsilosis ATCC22019 by CLSI method. It counts as functional. The following applies: Lodderomyces parapsilosis.
Data set [25] relates to Aspergillus fumigatus. Briefly: Antifungal activity against Aspergillus fumigatus MF5668 by CLSI method. It counts as functional.

Values after ≈ are worked out from the molar mass of the structure shown.

For orientation: IC50 means the point on the concentration scale where inhibition reaches its midpoint. Read a low IC50 as greater potency in that assay. The term MIC denotes the lowest concentration found to suppress growth. The molecule `N[C@@H](CO)[C@@H](O)[C@H](O)[C@H](O)COP(=O)(O)O` registered an IC50 in data set [1] of 230 µM. Also, the MIC in data set [2] and in [3] was 5000 µg/mL (≈ 19100 µM) each time.

For `CCC/C=C/C=C/[C@@H](O)C/C=C/C=C/C(=O)O[C@H]1[C@H](O[C@@H]2O[C@H](COC(=O)/C=C/C=C\CCCCC)[C@H](O)[C@H](O)[C@H]2O)[C@@H](CO)O[C@]2(OCc3cc(O)cc(O)c32)[C@@H]1O`, the MIC in data set [4], in data set [5], in [6], in [7], in data set [8] and in [9] was 0.1 µg/mL (≈ 0.12 µM) throughout. This molecule registered an MIC in data set [10] of 0.1 µg/mL (≈ 0.12 µM).

Turning to `Cc1ccc(OCC(O)CNC2Cc3ccccc3C2)cc1C` (stereo not drawn), the results for the IC50 in [11] and in [12] were 2.4 µM and 9.2 µM, respectively.

As to `CC(=O)N[C@H]1C(O)O[C@H](CS(=O)(=O)O)[C@@H](O)[C@@H]1O` (stereo partly drawn), the IC50 in [13] was over 5000 µM. In [14], the MIC came to 500 µg/mL (≈ 1750 µM).

A word on the half-life: it is the time needed for the level to fall by half in the phase considered. Turning to `CC(=O)[O-].CCCCCOc1ccc(-c2ccc(-c3ccc(C(=O)N[C@H]4C[C@@H](O)[C@@H](NCC[N+](C)(C)C)NC(=O)[C@@H]5[C@@H](O)[C@@H](C)CN5C(=O)[C@H]([C@@H](C)O)NC(=O)[C@H]([C@H](O)[C@@H](O)c5ccc(O)cc5)NC(=O)[C@@H]5C[C@@H](O)CN5C(=O)[C@H]([C@@H](C)O)NC4=O)cc3)cc2)cc1`, the results for the half-life in data set [15] and in [16] were 53.1 h and over 130 h, respectively.

In turn, `N[C@@H](CO)[C@@H](O)[C@H](O)[C@H](O)CS(=O)(=O)O` gave an IC50 in [17] of 130 µM. For the same molecule, in data set [14], the MIC was determined as 1000 µg/mL (≈ 4080 µM).

In the case of `COc1cc(O)c2c(c1)C(=O)c1c(cc3c(c1O)-c1c(cc(C)c(C(=O)NC(C)C(=O)O)c1O)[C@H](O[C@@H]1O[C@H](C)[C@H](O)[C@H](O[C@@H]4OC[C@@H](O)[C@H](O)[C@H]4O)[C@H]1O)[C@H]3O)C2=O` (stereo partly drawn), in data set [18], the ED50 worked out at 71 mg/kg.

`COS(=O)(=O)C[C@H]1OC(O)[C@H](N)[C@@H](O)[C@@H]1O` (stereo partly drawn): the MIC in [14], in [19], in data set [20] and in [21] was over 4000 µg/mL each time.

Regarding `COc1cc(O)c2c(c1)C(=O)c1c(cc3c(c1O)-c1c(cc(C)c(C(=O)N[C@H](CO)C(=O)O)c1O)[C@H](O[C@@H]1O[C@H](C)[C@H](O)[C@H](O[C@@H]4OC[C@@H](O)[C@H](O)[C@H]4O)[C@H]1O)[C@H]3O)C2=O`, the ED50 in data set [18] worked out at 33 mg/kg.

`Nc1ccccc1C(=O)OCC#CCOC(=O)c1ccccc1N`: the MIC is 4 µg/mL (≈ 12.3 µM) in data set [22], 4 µg/mL (≈ 12.3 µM) in [23], 2 µg/mL (≈ 6.17 µM) in [24] and 4 µg/mL (≈ 12.3 µM) in data set [25].
